Columns and labels:
[1] = tested on: beagle dogs; experiment: Canine peripheral vein toxicity model, 24 hour infusion (clinical pathology markers of inflammation: WBC, fibrinogen, CRP); format: in vivo; conditions: for NOAEL (μg/kg/min) (actual): based on clinical pathology markers (WBC, fibrinogen, CRP), 24 hour infusion, CAPTISOL 7% w/v, pH 4
Protocol: Key inflammatory markers measured include white blood cells (WBC), fibrinogen, and C-reactive protein (CRP).
After 24 hours of infusion, clinical pathology changes similar to those observed in previous studies using an implanted central catheter were detected.
Studies were conducted in male and female beagle dogs. Animals were allowed free access to drinking water and a commercial canine diet under standard laboratory conditions. Animals were fasted prior to blood sample collections when indicated by the study protocol. Fluorescent lighting was provided via an automatic timer for approximately 12 hours per day. On occasion, the dark cycle was interrupted intermittently due to study-related activities. Temperature and humidity were monitored and recorded daily and maintained to the maximum extent possible between 64° F. to 84° F. and 30% to 70%, respectively. The dogs were acclimated for a period of at least 1 week. During this period, the animals were weighed weekly and observed with respect to general health and any signs of disease. The animals were acclimated to wearing a jacket for at least three days prior to dose administration. Additionally, the animals were also acclimated to wearing an Elizabethan collar (e-collar) during the jacket acclimation.
Animals were catheterized the day prior to dose administration. A percutaneous catheter was placed (using aseptic technique and sterile bandaging) in the cephalic vein distal to the elbow. The animals were free-moving in their cages during continuous infusion dose administration. To facilitate continuous infusion dose administration, the peripheral catheter was attached to an extension set routed underneath a canine jacket and then attached to a tether infusion system. To prevent the animals from accessing/removing the peripherally placed percutaneous catheter, the catheterization site was bandaged using Vet Wrap and an e-collar was placed on the animals for the duration of the treatment (i.e., the catheterized period). During the pretreatment period, the venous catheter was infused continuously at a rate of approximately 2-4 mL/hr with 0.9% sodium chloride for injection, USP (saline) to maintain catheter patency. Prior to dosing, the infusion system was pre-filled (slow bolus infusion) with the respective dosing solution to ensure that dosing began as soon as the infusion pump was started. The infusion line was connected to a reservoir containing the control or test compound and the infusion was started. Test compositions were infused continuously, at a predetermined constant infusion rate (1 or 2 mL/kg/hr), for 24 hours and were compared at molar equivalent dose rates.
A detailed clinical examination of each animal was performed twice daily and body temperature measurements and blood samples for clinical pathology were collected from all animals pre-dose and 6 hours, 12 hours, 24 hours and 72 hours post start of composition infusion. At the termination of the study, all animals were euthanized at their scheduled necropsy and complete necropsy examinations were performed. Selected tissues were collected, fixed and stored for potential future microscopic examination. The cephalic vein containing the infusion catheter was dissected intact along with the brachial vein and examined along its entire length. The location of the catheter tip was marked on the unfixed specimen. After fixation, the specimen was trimmed and processed to slide to provide transverse histologic sections representing the catheter tip and surrounding tissues both proximal and distal to the catheter tip (i.e., 1 cm distal to the catheter tip, at the catheter tip, and 1, 5, 10, 15, and 20 cm proximal to the catheter tip). Relative to the catheter tip, “proximal” was defined as closer to the heart and “distal” was defined as further from the heart.
Each compound was formulated with CAPTISOL® (7% w/v) in sterile water at a pH of 4. […]

[2] = HNO production determined via N2O quantification (GC headspace analysis); format: physicochemical; conditions: PBS, 37° C.
Procedure, shortened: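 Compounds dissolved in argon-purged anhydrous DMF were added to argon-purged PBS in sealed vials at 37° C for the set incubation time; headspace N2O was measured by GC with micro-ECD. N2O gas and CXL-1020 served as standards, and relative N2O yield (%) was calculated per incubation time.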

Row | Compound | finding in upper forelimb downstream from catheter tip ([1]; after 6 hours of infusion, percutaneous catheter in cephalic vein, dogs) | microscopic pathology at the catheter tip ([1]; after 24 hours of infusion, percutaneous catheter in cephalic vein, dogs) | NOAEL (μg/kg/min) (actual) [1] | Relative N2O Yield (90 minutes incubation) [2] | improvement relative to CXL-1020 ([1]; NOAEL, clinical pathology markers) | NOAEL compared with CXL-1020 ([1]; clinical pathology markers) | Relative N2O Yield (360 minutes incubation) [2]
1 | CS(=O)(=O)c1ccccc1S(=O)(=O)NO [CXL-1020, N-hydroxy-2-methanesulfonylbenzene-1-sulfonamide, reference compound] | significant edema | severe thrombophlebitis | <0.03 µg/kg/min |  |  |  | 
2 | Cc1ccc(S(=O)(=O)NO)o1 [Compound 1, N-Hydroxy-5-methylfuran-2-sulfonamide] |  |  | >20 µg/kg/min | 52% | greater than 660 fold | significantly higher than that of CXL-1020 | 
3 | CS(=O)(=O)c1cccc(S(=O)(=O)NO)c1 [Compound 2, N-Hydroxy-3-methanesulfonylbenzene-1-sulfonamide] |  |  | 3 µg/kg/min | 82% |  | significantly higher than that of CXL-1020 | 94%
4 | O=S(=O)(NO)c1ccco1 [Compound 83, N-Hydroxyfuran-2-sulfonamide] |  |  | 3 µg/kg/min | 42% |  | significantly higher than that of CXL-1020 | 86%
5 | Cc1ccc(S(=O)(=O)NO)s1 [Compound 84, N-Hydroxy-5-methylthiophene-2-sulfonamide] |  |  | 10 µg/kg/min | 52% |  | significantly higher than that of CXL-1020 | 67%
6 | Cn1ccc(S(=O)(=O)NO)n1 [Compound 85, N-Hydroxy-1-methyl-1H-pyrazole-3-sulfonamide] |  |  | 3 µg/kg/min | 33.5% |  | significantly higher than that of CXL-1020 | 

Reference: patent US10245249B2, “Pharmaceutical compositions comprising nitroxyl donors” (Cardioxyl Pharmaceuticals, Inc., priority 2013, dated 2019)
